Where “and” joins values, the source holds several entries; their conditions need not be identical. Equal values may be shown once. Read-outs that look alike come from different tables or passages of the source.
Key:
fleas [1] = assay: Flea control on carpet circles by S-methoprene volatilized by a plug-in heater; assay type: in vivo, Ctenocephalides felis; settings: for Adult Flea Emergence (From 100 Eggs), Individual Tests: 0.1 g, room 78.4 m^3, activation time 4 h, three carpet circles; for Emax: Ctenocephalides felis
Method: This example illustrates the efficacy of S-methoprene volatilized by a plug-in heater designed for use with mosquito repellents. The heater was an AgRevo heater, 110-120v, 50-60 Hz, 5 watts, purchased from DBK Espana Household Technologies, and the tests were performed in the same test room used for Example 1, adjusted to a floor area of 18.6 m^2 (200 ft^2), resulting in a room volume of 78.4 m^3 (2,800 ft^3). The S-methoprene was placed in the heater by wetting a Whatman filter pad consisting of 50% cellulose and 50% glass fiber, the wetting solution consisting of 8.8% (by weight) S-methoprene in neat 1-methoxy 2-propanol. The amount of solution used was 1.2 g, resulting in 0.1 g of S-methoprene in the pad. Carpet circles were used as in the preceding examples, and all other procedures were the same as those in Example 1. Carpet circles were placed at distances of 0.61 m (2 ft), 3.0 m (10 ft), and 6.1 m (20 ft) from the plug-in-heater, with three carpet circles at each location. Three additional carpet circles were retained outside the room to avoid exposure to the volatilized S-methoprene for use as controls. The activation time for the test circles was four hours. Efficacy was determined by comparing the results from the test circles to those from the control circles.

fleas [2] = assay: Residual flea control on carpet circles by S-methoprene volatilized from a 60-watt light bulb in a residential living room; assay type: in vivo, Ctenocephalides felis; settings: for Number of Adult Fleas Emerging From 100 Eggs, individual test samples: 0.1 g (Solution B), 4 h exposure, 6.1 m from bulb, samples 1-6; for Percent Control (Arithmetic) / Percent Control (Geometric): relative to control samples
Method: This example is a further illustration of the efficacy of S-methoprene volatilized by heating from an incandescent light bulb in the control of fleas. The test was performed in a conventional residential living room with a floor area of 21.5 m^2 (231 ft^2). A single standard 60-watt incandescent bulb was used as the heat source, with a felt ring containing 0.1 g of S-methoprene (using Solution B of Example 1). The temperature of the bulb surface at the location of the felt ring was approximately 200° F. (93° C.). The exposure time (the length of time that the lamp containing the bulb was turned on) was four hours. The carpet circles were placed twenty feet (6.1 m) from the bulb.
After exposure to the volatilized S-methoprene, the carpet circles were each aged (allowed to rest without additional exposure) for 1, 2, 3, or 4 months. They were then challenged by infestation with flea eggs in the same manner as described above in Example 1. The results, expressed in terms of the number of adult fleas emerging after 35 days, are listed in Table II, together with corresponding results from control samples.

[3] = test system: fleas (Ctenocephalides felis); assay: Flea control on carpet circles by S-methoprene volatilized from a 100-watt light bulb in a test room; assay type: in vivo; settings: for Efficacy at Indicated Distance from Source, 35-Day Residual Effect: carpet rested 35 days before infestation
Method: This example illustrates the efficacy of S-methoprene volatilized by heating from an incandescent light bulb in the control of fleas (Ctenocephalides felis).
Testing was performed in a test room measuring 8.5 m (28 ft.) (length)×6.1 m (20 ft) (width)×4.3 m (14 ft.) (height) with a movable partition to reduce the room to the desired size. For this series of tests, the partition was placed in various positions such that the horizontal area of the room was variously:
A single standard 100-watt incandescent light bulb was used as the heating source, and a felt ring that was cut to fit on the top of the light bulb was used as the support for the liquid S-methoprene solution. Three liquid S-methoprene solutions were used as follows:
Solution A: S-methoprene and IRGANOX® L57 (in a weight ratio of 50:1), to achieve a solution of […] S-methoprene by weight. IRGANOX ® L57 (Ciba-Geigy Corp., Hawthorne, N.Y., USA) is a liquid aminic antioxidant in the form of an alkylated diphenylamine. No solvents were used.
Solution B: S-methoprene and BHT (in a weight ratio of 50:1), dissolved in a mixture of 1-methoxy-2-propanol and deionized water (in a weight ratio of 84:16) to achieve a solution of 5.2% S-methoprene by weight.
Solution C: S-methoprene and BHT (in a weight ratio of 50:1), dissolved in a mixture of 1-methoxy-2-propanol and Belmay B-5 Fragrance (in a weight ratio of 44:56) to achieve a solution of 5% S-methoprene by weight.
As the infested target, circular pieces of carpet were used. Each piece was 7.6 cm (3 inches) in diameter cut from a 1.3-cm (0.5-inch) pile nylon carpet, and individual circles were placed at distances of 0.61 m (2 ft), 3.0 m (10 ft), and 6.1 m (20 ft) from the light bulb.
The felt ring in each experiment was wetted with 2 g of solution. […] The bulb was turned on for periods of time ranging from 4 h to 120 h. This is referred to below as the “Activation Time.” The temperature of the bulb surface at the location of the felt ring was approximately 215° F. (102° C.). In some of the tests, a horizontal barrier was placed above the carpet circles at distances of 5.1 cm (2 inches) or 7.6 cm (3 inches), to simulate penetration of the S-methoprene to difficult-to-reach places such as under furniture. The carpet circles were placed in two positions below the barrier—one in which the center of the carpet circle was 30 cm (12 inches) from the edge of the barrier (identified below as “Position 1”), and the other in which the center of the carpet circle was 7.6 cm (3 inches) from the edge of the barrier (identified below as “Position 2”).
After these exposures, the carpet circles were removed from the room, and sprinkled with flea rearing media and infested with 100 viable flea eggs. Similar carpet circles that had not undergone exposure to the volatilized S-methoprene were similarly sprinkled and infested. The exposed (test) and unexposed (control) carpet circles were then placed in a warm (27° C., 80° F.), high humidity (80% relative humidity) room for 35 days to allow any viable flea eggs in the circles to develop to adult fleas. In some of the tests, the carpet circles were allowed to rest for 35 days after removal from the treatment room before being infested with the flea eggs, to test for residual efficacy. In all cases, efficacy was determined by comparing the results from test circles to those from the control circles.

[4] = 0.1 g, room 78.4 m^3, activation time 4 h, carpet centre 7.6 cm from barrier edge, 3.0 m
[5] = 0.1 g, room 78.4 m^3, activation time 4 h, carpet centre 30 cm from barrier edge, 3.0 m

## COC(C)(C)CCC[C@H](C)C/C=C/C(C)=C/C(=O)OC(C)C [S-methoprene, (E,E)-(7S)-11-methoxy-3,7,11-trimethyldodeca-2,4-dienoate, isopropyl ester]
Fleas [1]; 0.61 m from heater
  Adult Flea Emergence (From 100 Eggs), Average: 1
  Adult Flea Emergence (From 100 Eggs), Individual Tests: 0/1/2
Fleas [1]; 3.0 m from heater
  Adult Flea Emergence (From 100 Eggs), Average: 0.3
  Adult Flea Emergence (From 100 Eggs), Individual Tests: 1/0/0
Fleas [1]; 6.1 m from heater
  Adult Flea Emergence (From 100 Eggs), Average: 0.3
  Adult Flea Emergence (From 100 Eggs), Individual Tests: 1/0/0
Fleas [1]; 0.61 m from heater, read-out: % Efficacy (Relative to Control)
  Emax: 92.7%
Fleas [1]; 3.0 m from heater, read-out: % Efficacy (Relative to Control)
  Emax: 97.8%
Fleas [1]; 6.1 m from heater, read-out: % Efficacy (Relative to Control)
  Emax: 97.8%
Fleas [1]; all distances from heater, read-out: % Efficacy (Relative to Control), Overall
  Emax: 96.1%
Fleas [1]; all distances from the plug-in heater
  Flea control, result in words: excellent control at all distances
Fleas [2]; 1 month after treatment
  Number of Adult Fleas Emerging From 100 Eggs, Mean (Arithmetic), test samples: 2.8
  Number of Adult Fleas Emerging From 100 Eggs, Mean (Geometric), test samples: 2.7
  Number of Adult Fleas Emerging From 100 Eggs, individual test samples: 3 (2×) and 2 (3×) and 5
  Percent Control (Arithmetic): 95.6%
  Percent Control (Geometric): 95.8%
Fleas [2]; 2 months after treatment
  Number of Adult Fleas Emerging From 100 Eggs, Mean (Arithmetic), test samples: 3.2
  Number of Adult Fleas Emerging From 100 Eggs, Mean (Geometric), test samples: 1.9
  Number of Adult Fleas Emerging From 100 Eggs, individual test samples: 5 and 2 (2×) and 0 and 4 and 6
  Percent Control (Arithmetic): 95.5%
  Percent Control (Geometric): 97.3%
Fleas [2]; 3 months after treatment
  Number of Adult Fleas Emerging From 100 Eggs, Mean (Arithmetic), test samples: 3.7
  Number of Adult Fleas Emerging From 100 Eggs, Mean (Geometric), test samples: 0.7
  Number of Adult Fleas Emerging From 100 Eggs, individual test samples: 1 and 0 (3×) and 5 and 16
  Percent Control (Arithmetic): 94.0%
  Percent Control (Geometric): 98.9%
Fleas [2]; 4 months after treatment
  Number of Adult Fleas Emerging From 100 Eggs, Mean (Arithmetic), test samples: 4.0
  Number of Adult Fleas Emerging From 100 Eggs, Mean (Geometric), test samples: 3.0
  Number of Adult Fleas Emerging From 100 Eggs, individual test samples: 1 (2×) and 8 and 4 (2×) and 6
  Percent Control (Arithmetic): 94.3%
  Percent Control (Geometric): 95.7%
Fleas [2]; all cases, 1-4 months after treatment
  Flea control, result in words: excellent control was achieved in all cases
Fleas [2]; carpet circles aged after exposure
  Persistence of the treatment: persistent for up to four months
[3]; [4]
  Efficacy Under 2-in. Overhead Barrier, Position 2: Position 2: 96%
  Efficacy Under 3-in. Overhead Barrier, Position 2: Position 2: 100%
[3]; [5]
  Efficacy Under 2-in. Overhead Barrier, Position 1: Position 1: 99%
  Efficacy Under 3-in. Overhead Barrier, Position 1: Position 1: 100%
[3]; 0.1 g, room 78.4 m^3, activation time 24 h, 0.61 m from source
  Efficacy at Indicated Distance from Source: 99%
[3]; 0.1 g, room 78.4 m^3, activation time 24 h, 0.61 m
  Efficacy at Indicated Distance from Source, 35-Day Residual Effect: 96%
[3]; 0.1 g, room 78.4 m^3, activation time 24 h, 3.0 m from source
  Efficacy at Indicated Distance from Source: 99%
[3]; 0.1 g, room 78.4 m^3, activation time 24 h, 3.0 m
  Efficacy at Indicated Distance from Source, 35-Day Residual Effect: 96%
[3]; 0.1 g, room 78.4 m^3, activation time 24 h, 6.1 m from source
  Efficacy at Indicated Distance from Source: 99%
[3]; 0.1 g, room 78.4 m^3, activation time 24 h, 6.1 m
  Efficacy at Indicated Distance from Source, 35-Day Residual Effect: 97%
[3]; 0.1 g, room 117.6 m^3, activation time 4 h, 0.61 m from source
  Efficacy at Indicated Distance from Source: 100%
[3]; 0.1 g, room 117.6 m^3, activation time 4 h, 3.0 m from source
  Efficacy at Indicated Distance from Source: 99.4%
[3]; 0.1 g, room 117.6 m^3, activation time 4 h, 6.1 m from source
  Efficacy at Indicated Distance from Source: 99.4%
[3]; 0.1 g, room 186.8 m^3, activation time 4 h, 0.61 m from source
  Efficacy at Indicated Distance from Source: 100%
[3]; 0.1 g, room 186.8 m^3, activation time 4 h, 3.0 m from source
  Efficacy at Indicated Distance from Source: 99.6%
[3]; 0.1 g, room 186.8 m^3, activation time 4 h, 6.1 m from source
  Efficacy at Indicated Distance from Source: 100%
[3]; 0.1 g, room 196 m^3, activation time 4 h, 0.61 m from source
  Efficacy at Indicated Distance from Source: 95%
[3]; 0.1 g, room 196 m^3, activation time 4 h, 3.0 m from source
  Efficacy at Indicated Distance from Source: 97.3%
[3]; 0.1 g, room 196 m^3, activation time 4 h, 6.1 m from source
  Efficacy at Indicated Distance from Source: 96.5%
[3]; 1.8 g S-methoprene volatilized, room 78.4 m^3, activation time 120 h, 0.61 m from source
  Efficacy at Indicated Distance from Source: 100%
[3]; 1.8 g S-methoprene volatilized, room 78.4 m^3, activation time 120 h, 3.0 m from source
  Efficacy at Indicated Distance from Source: 100%
[3]; 1.8 g S-methoprene volatilized, room 78.4 m^3, activation time 120 h, 6.1 m from source
  Efficacy at Indicated Distance from Source: 100%
[3]; all cases, including lower dosage rate, 35-day residual effect, overhead barrier
  Flea control, result in words: excellent control was achieved in all cases
